Assay: Comparison of blood concentrations of donepezil after injection or oral administration
Type: in vivo
Conditions: beagle dog, orally administered

Substance: donepezil
- blood concentration duration: very short for about one day

From US11400085B2, “Method for preparing pharmaceutical composition for preventing or treating cognitive impairment-related disease and pharmaceutical composition for preventing or treating cognitive impairment-related disease prepared by the same” (priority 2018, dated 2022)
